Measured values: US10494404B2, “Quinolinium conjugates of cyclosporin” (priority 2014, dated 2019)
Entries after “also recorded” stand apart in the source; their conditions may differ.

What was measured:
[1] = tested on: Ca^2+ mediated PT pore formation; experiment: Calcium retention capacity (CRC) assay, isolated WT mouse liver mitochondria; assay type: biochemical
From the text: In order to assess the efficiency of compounds on Ca^2+ mediated PT pore formation we measured calcium retention capacity (CRC) of isolated mouse liver mitochondria. […] Energised mitochondria take up Ca^2+, resulting in a declining fluorescent signal following the Ca^2+ bolus induced peak. Mitochondria take up and buffer Ca^2+ up to a threshold when intramitochondrial [Ca^2+] reaches threshold to induce PT. […] The amount of Ca^2+ required to induce PT characterizes its Ca^2+ sensitivity and defines mitochondrial CRC. Inhibition of CypD, the Ca^2+ sensor of PT, thus leads to increased CRC.
Further experiments were carried out using the techniques discussed in Example 4.
(§1) Subcellular fractionation was performed as previously described (Astin et al, 2013). […] At 4° C., the liver was rinsed in PBS to remove excess blood, and any fat and connective tissue was eliminated. PBS was then replaced with isolation buffer containing 1 mM PMSF, and the liver was chopped into pieces (approximately 2 mm in length). Tissue was then homogenized in this solution until no solid matter remained, and then centrifuged at 800G for 10 minutes at 4° C. The nuclear pellet was then discarded, and the post nuclear supernatant retained, and centrifuged at 10300G for another 10 minutes at 4° C. The postmitochondrial supernatant was discarded, and the mitochondrial pellet was resuspended in isolation buffer and PMSF, and kept on ice. Protein levels were quantified using a ThermoScientific BCA protein quantification assay, as per manufacturer's instructions.
Isolated mitochondria were resuspended (500 μg protein/ml) in MSK buffer (75 mM mannitol, 25 mM sucrose, 5 mM potassium phosphate monobasic, 20 mM Tris-HCl, 100 mM KCl, and 0.1% bovine serum albumin, pH 7.4) supplemented with 10 mM succinate, 1 μM rotenone and 1 μM Fluo5N. 200 μl mitochondrial suspension per well was used in 96 well microplates. Compounds were incubated for ten minutes before the plate was assayed in a Fluostar Optima plate reader, using Ex/Em filters at 480/520 […]; CaCl2 was injected approximately every 6.5 minutes for 80 minutes (12 total injections, final concentration of 75 μM). To calculate % inhibition of Ca^2+ induced pore opening, first areas under each curve were calculated, and controls without CaCl2 addition were subtracted as background. The background corrected values were then expressed as the fraction of controls without mitochondria, representing the total amount of Ca^2+ added, unbuffered by mitochondria. Percentage inhibition for each [compound] was then calculated as the % of the corresponding value for the untreated condition. […] For experiments with CypD −/− mice, 100 ul mitochondrial suspension per well was used. CaCl2) was injected approximately every 6.5 minutes for 135 minutes (20 total injections, final concentration of 266 μM). Data were background corrected and expressed as the fraction of controls without mitochondria, and then normalised to the wild type no drug condition. Significance was assessed by one way ANOVA.

[2] = tested on: Ca^2+ mediated PT pore formation (CypD KO mitochondria); experiment: Calcium retention capacity (CRC) assay, liver mitochondria from CypD knockout mice; assay type: biochemical, mouse
Method: as §1, with “The postmitochondrial supernatant was discarded, and the mitochondrial pellet was resuspended in isolation buffer and PMSF, and kept on ice.” left out
Isolated mitochondria were resuspended (500 μg protein/ml) in MSK buffer (75 mM mannitol, 25 mM sucrose, 5 mM potassium phosphate monobasic, 20 mM Tris-HCl, 100 mM KCl, and 0.1% bovine serum albumin, pH 7.4) supplemented with 10 mM succinate, 1 μM rotenone and 1 μM Fluo5N. […] Compounds were incubated for ten minutes before the plate was assayed in a Fluostar Optima plate reader, using Ex/Em filters at 480/520 […]; CaCl2 was injected approximately every 6.5 minutes for 80 minutes (12 total injections, final concentration of 75 μM). […] Percentage inhibition for each [compound] was then calculated as the % of the corresponding value for the untreated condition. […]

[3] = tested on: experimental autoimmune encephalomyelitis (EAE); experiment: Relapsing-progressive experimental autoimmune encephalomyelitis (EAE) in ABH mice; assay type: in vivo, mouse
Method: ABH mice were injected with 1 mg mouse spinal cord homogenate in Freund's adjuvant on days 0 and 7 post-induction to induce EAE and this was repeated on day 28 post-induction to induce a relapse.
Animals were monitored for the development of clinical disease and the results in FIG. 1 represent the mean daily clinical score after induction of relapse.
Mice were injected subcutaneously (s.c.) with 1 mg freeze-dried mouse spinal cord homogenate (SCH) in Freunds adjuvant on day zero and seven as described previously (Al-Izki et al, 2012a). After the initial paralytic disease and subsequent remission, a relapse was induced by a further injection of SCH in Freunds incomplete adjuvant on day 28 to induce a relapse 7 days later (Al-Izki et al, 2012a). Studies were randomised, blinded and powered as described previously (Al-Izki et al, 2012a). Neurological scores were graded as 0=normal; 1=limp tail, 2=impaired righting reflex, 3=hindlimb paresis, 4=complete hindlimb paralysis, and 5=moribund/death (Al-Izki et al, 2012a). Results are expressed as mean±SEM maximum or minimum neurological score and mean day of onset±SD. Differences between groups were assessed using Mann Whitney U statistics (Al-Izki et al, 2012a). Motor control and co-ordination was assessed on an accelerating (4-40 rpm, accelerating at 6 rpm/25 s) RotaRod (ENV-575M, Med Associates Inc, St. Albans, Vt., USA) as described previously (Al-Izki et al, 2012a). This was performed one day before induction of relapse and at the termination of the experiment on day 45. RotaRod assessment was performed blinded to treatment. Animals were randomised to vehicle or treatment based on their RotaRod scores. Results are expressed as mean±SEM time that animals maintained rotarod activity. Differences between groups were assessed using Students t test, incorporating a test for equality of variance and normality (Al-Izki et al, 2012a). At the end of the experiment the spinal cord was removed and an enzyme linked immunosorbent assay (ELISA) for heavy chain neurofilament on spinal cord was performed and total nerve content of each spinal cord was estimated following calibration against neurofilament protein standards as described previously (Jackson et al, 2005); (Al-Izki et al, 2012a).
Neurofilament level as a correlate of spinal cord axonal content was determined as followed. Spinal cords were collected from the spinal columns of untreated (n=11) and Compound 11 mg/kg treated (n=13) animals at the second remission phase of disease post relapse at day 45 post disease induction. Tissues snap frozen and stored at −80° C. prior to homogenisation. Tissues were homogenised in a glass homogeniser in 1 ml/100 mg of spinal cord tissue wet weight homogenisation buffer (0.2 mM PMSF, 1 mM EDTA, 1 mM EGTA, 4M Urea, 10 mM Tris-HCl Sigma UK, pH 7.2,) plus 1:100 HALT protease inhibitor cocktail (Thermo Fisher, UK) and further homogenised by sonication twice for 10 seconds (Cole-Parmer Instruments, USA). Samples were spun down at 13,000 rpm in a bench top centrifuge (Eppendorf, UK) and the supernatant was collected and stored at −80° C. prior to neurofilament determination. Samples were thawed on ice and an enzyme linked immunosorbent assay for heavy chain neurofilament was performed. Briefly, a 96 well plate was coated overnight at 4° C. with capture antibody (1:5000 SMI-35 anti-neurofilament H. Covance Inc. Cambridge Bioscience, Cambridge, UK) in coating buffer (0.15M Na2CO3, 0.35M NaHCO3, Sigma, UK, pH 9.6. Following one wash in wash buffer (150 mM NaCl, 10 mM Tris-HCl, 0.1% Tween 20, Sigma, UK pH 7.5), non-specific binding was blocked by incubation with 5% bovine serum albumin (Sigma, UK) in wash buffer for 1 hour at room temperature. Following a wash step, samples and standards (Porcine neurofilament heavy chain, Chemicon International, UK) were diluted in wash buffer with 1% bovine serum albumin and incubated on the plate for 1 hour at room temperature. […]

## CC[C@@H]1NC(=O)[C@H]([C@H](O)[C@H](C)C/C=C/CCC[n+]2cccc3ccccc32)N(C)C(=O)[C@H](C(C)C)N(C)C(=O)[C@H](CC(C)C)N(C)C(=O)[C@H](CC(C)C)N(C)C(=O)[C@@H](C)NC(=O)[C@H](C)NC(=O)[C@H](CC(C)C)N(C)C(=O)[C@H](C(C)C)NC(=O)[C@H](CC(C)C)N(C)C(=O)CN(C)C1=O [Compound 1, [Gly-(1S,2R,E)-8-quinolinium-1-hydroxy-2-methyloct-4-ene]^1 CsA]
[1]; 8 nM
  inhibition of Ca2+ mediated PT pore formation: […]
[1]; isolated mouse liver mitochondria
  inhibition of Ca2+-induced PT (increased CRC), potency compared to CsA and SmBzCsA: […]
[1]; isolated mouse liver mitochondria, read-out: half-maximal inhibition in the CRC assay
  IC50: […]
[1]; mitochondria from WT mice
  effect on CRC: […]
[2]
  effect on CRC: […]
[3]; 1 mg/kg i.p. daily from day 33
  mean daily clinical score after induction of relapse: inhibits the accumulation of neurological deficit; also recorded: has neuroprotective properties
[3]; 1 mg/kg i.p., vs vehicle
  loss of axons within the spinal cord: […]
  loss of motor co-ordination: […]
  loss of nerves within the spinal cord (neurofilament ELISA): […]
[3]; day 27, first remission, before treatment
  rotarod activity (time on accelerating rotarod): […]
[3]; second remission after relapse (day 45), 1 mg/kg i.p.
  rotarod activity (time on accelerating rotarod): 135.0 ± 42.9 s
